In paper PMC8448819, “The Arabidopsis MIK2 receptor elicits immunity by sensing a conserved signature from phytocytokines and microbes” (Nature Communications, 2021):
“And” between values parts separate entries of the source, which are not always exact repeats. Identical values can stand only once. Like-named read-outs stand apart in the source and are kept apart here.

What was measured:
Assay type in all cases: in vivo, Arabidopsis thaliana
[1] = test system: mik2-1 and mik2-2 mutant seedlings; settings: individual values, one per line
[2] = test system: Arabidopsis WT seedlings; test: ROS assay (luminol), WT seedlings; settings: WT seedlings
Method: ROS burst was determined by a luminol-based assay. […] Then, ddH2O was replaced by 200 µL of reaction solution containing 50 µM of luminol, and 10 µg/mL of horseradish peroxidase (Sigma-Aldrich) supplemented with or without 100 nM or 1 μM peptide. Luminescence was measured immediately after adding the solution with a luminometer (Glomax 20/20n, Promega) with a one-second interval for 15 min. The total values of ROS production were indicated as means of the relative light units (RLUs).

[3] = test system: Arabidopsis WT (Col-0) seedlings; settings: in vivo

Row | Sequence | Root length (Fig. 3e) ([1]; mik2-1) | Root length (Fig. 3e) ([1]; mik2-2) | ROS production, total luminescence (Fig. 2h) ([2]; repeat 1) | ROS production, total luminescence (Fig. 2h) ([2]; repeat 2) | ROS production, total luminescence (Fig. 2h) ([2]; repeat 3) | root growth inhibition [3]
1 | GAPIVFTPPSSSCGGSP [STMP4, STMP4 peptide, which has an amino acid deletion in the conserved SxS motif] | 26.035 and 22.177 and 25.221 and 21.231 and 23.232 and 25.379 and 25.816 and 25.603 and 24.49 | 27.261 and 26.645 and 24.381 and 25.81 and 23.327 and 24.383 and 26.715 and 24.68 and 25.536 and 24.727 | – | – | – | –
2 | KIAVGGSDSVRAHSK [SCOOP23, synthesized SCOOP peptide corresponding to the SxS motif] | 23.435 and 26.217 and 25.329 and 21.432 and 22.769 and 26.981 and 22.432 and 24.659 and 23.767 and 23.209 | 23.086 and 28.297 and 24.517 and 23.273 and 27.734 and 25.385 and 23.518 and 22.015 and 26.958 and 26.866 and 23.718 | 2180098 | 1251437 | 1771537 | inhibited root growth to various degrees
3 | KIGASGSNSGRAPSC [SCOOP20, synthesized SCOOP peptide corresponding to the SxS motif] | 24.471 and 25.145 and 23.922 and 25.251 and 22.928 and 25.223 and 20.452 and 22.037 and 23.256 and 20.819 | 26.727 and 24.181 and 24.271 and 27.062 and 26.494 and 25.973 and 25.806 and 29.152 and 24.029 and 26.34 and 22.997 | 5262077 | 3306520 | 2873103 | inhibited root growth to various degrees
4 | MISEARPSKSKKGGGR [SCOOP6B, synthesized SCOOP peptide corresponding to the SxS motif] | 26.764 and 22.587 and 22.234 and 24.018 and 23.886 and 24.716 and 22.804 and 23.685 and 23.478 and 25.619 | 24.299 and 28.027 and 25.995 and 25.387 and 24.265 and 26.073 and 27.219 and 21.779 and 25.474 and 24.644 | – | – | – | inhibited root growth to various degrees
5 | RGIVKPPIASFHSASPKDKGP [SCOOP4, synthesized SCOOP peptide corresponding to the SxS motif] | 22.155 and 26.016 and 23.373 and 23.51 and 24.985 and 25.73 and 26.362 and 20.719 and 23.733 and 21.154 | 26.627 and 26.926 and 29.205 and 26.909 and 23.654 and 24.824 and 23.191 and 25.56 and 22.857 and 22.903 and 27.736 | – | – | – | inhibited root growth to various degrees
6 | RPPTPRVAVHSNSTKGKGP [SCOOP15B, synthesized SCOOP peptide corresponding to the SxS motif] | 22.469 and 26.152 and 25.889 and 25.356 and 27.954 and 26.487 and 24.47 and 23.738 | 21.779 and 26.908 and 23.024 and 23.497 and 28.191 and 26.08 and 24.094 and 28.257 and 26.467 and 23.539 and 26.537 | – | – | – | inhibited root growth to various degrees
7 | SNIDFEGSISGQAGGG [SCOOP8, synthesized SCOOP peptide corresponding to the SxS motif] | 25.253 and 25.162 and 23.049 and 22.582 and 26.011 and 22.381 and 28.631 and 26.512 and 24.502 and 27.853 | 23.975 and 28.387 and 29.648 and 23.838 and 24.549 and 26.123 and 23.426 and 24.732 and 24.595 and 29.804 and 26.398 | – | – | – | inhibited root growth to various degrees
